The assay has as its target T1, human NPY Y5 receptor (Homo sapiens, UniProt Q15761).
T1 construct: expressed in transfected cells; membranes used
T1 sequence (Q15761 1-445): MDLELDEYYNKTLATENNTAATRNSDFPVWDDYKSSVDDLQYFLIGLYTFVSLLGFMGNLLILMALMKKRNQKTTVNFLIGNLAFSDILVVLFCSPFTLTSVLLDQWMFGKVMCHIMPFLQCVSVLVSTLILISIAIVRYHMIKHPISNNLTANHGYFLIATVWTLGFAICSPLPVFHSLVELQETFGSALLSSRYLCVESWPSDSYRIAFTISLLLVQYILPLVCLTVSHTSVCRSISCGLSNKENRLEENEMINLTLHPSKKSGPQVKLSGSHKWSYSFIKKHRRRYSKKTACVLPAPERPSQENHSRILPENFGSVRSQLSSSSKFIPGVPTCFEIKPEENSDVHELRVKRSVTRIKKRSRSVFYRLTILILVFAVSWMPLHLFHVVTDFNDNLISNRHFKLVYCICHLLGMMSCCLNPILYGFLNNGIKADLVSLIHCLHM
The assay can be described thus: Affinity for NPY Y5 receptor ([125I] peptide YY binding to CHO cell membranes). As to conditions: membranes from CHO cells expressing NPY Y5 receptor; [125I] peptide YY 60 pM; 25° C., 2 hours; read-out: 50% inhibitory concentration of the test-compound against the specific peptide YY binding (IC50 value). The source says: Experiment 1: Affinity for NPY Y5 Receptor
cDNA sequence encoding a human NPY Y5 receptor (WO96/16542) was cloned in a vector pME18S (Takebe et al. Mol. Cell. Biol. 8, 8957). The obtained expression vector was transfected into CHO cells as a host by using Lipofect AMINE reagent (Trademark, Gibco BRL Co., Ltd.) according to the instruction manual. The cells that stably express NPY Y5 receptor were obtained.
The membranes prepared from the CHO cells expressing NPY Y5 receptor, the compound of the present invention and 30,000 cpm [^125I] peptide YY (60 pM of final concentration: Amersham) were incubated in the assay buffer (20 mM HEPES-Hanks buffer containing 0.1% bovine serum albumin, pH 7.4) at 25° C. for 2 hours, and then the membrane was filtered from the mixture through a glassfilter (GF/C) presoaked with 1% polyethyleneimine. After washing with 50 mM Tris-HCl buffer (pH 7.4), radioactivity retained on the filters was quantified with a gamma counter. Nonspecific binding was defined as the amount of radioactivity bound to the membranes after incubation in the presence of 200 nM of peptide YY. The 50% inhibitory concentration of the test-compound against the specific peptide YY binding (IC50 value) was calculated (Inui, A. et al. Endocrinology 131, 2090-2096 (1992)).

These results are taken from patent US8344180B2, “Hydrazine amide derivative” (Shionogi & Co., Ltd., priority 2006, dated 2013).

For the compound `CC(C)(C)S(=O)(=O)N[C@H]1CC[C@H](C(=O)NNc2ccc(Cl)c(Cl)c2)CC1` [Example I-4], the IC50 worked out at 2.3 nM.
Take `CC(C)S(=O)(=O)N[C@H]1CC[C@H](C(=O)NNc2ccc(Cl)c(Cl)c2)CC1` [Example I-8]: the IC50 turned out to be 1.1 nM.
For `CC(C)(C)S(=O)(=O)N[C@H]1CC[C@H](C(=O)NNc2cccc(-c3ccccc3)c2)CC1` [Example I-23], the IC50 came to 1.12 nM.
The same measure for `CC(C)(C)S(=O)(=O)N[C@H]1CC[C@H](C(=O)NNc2cccc3ccccc23)CC1` [Example I-17]: 0.88 nM.
